Results: publication PMC11632778, “Adaptive Synthesis, Supramolecular Behavior, and Biological Properties of Amphiphilic Carbosilane-Phosphonium Dendrons with Tunable Structure” (Biomacromolecules, 2024)
Where two headings read alike, the source gives them in different places.

What was measured:
S. aureus CCM 4516 = assay: Microdilution broth MIC; assay type: cell-based; details: Staphylococcus aureus
Method: (§1) In vitro antibacterial activity of the prepared amp-DDNs (DnP6-1C12, DnP3-1C12, DnP3-2C12, and DnP3-2C18) was tested on a panel of four G+ (Staphylococcus aureus CCM 4516, methicillin-resistant S. aureus clinical isolate C1923, Staphylococcus epidermidis clinical isolate C1936, and vancomycin-resistant Enterococcus faecium clinical isolate S2484) and four G-bacterial strains (Escherichia coli K12, CCM 7929, E. coli clinical isolate A1235, extended-spectrum β-lactamase-producing (ESBL+) Klebsiella pneumoniae clinical isolate C1914, and multiresistant Pseudomonas aeruginosa clinical isolate A1245). CCM collection strains were obtained from the Czech Collection of Microorganisms. All clinical isolates were obtained during routine procedures in the clinical laboratory at the University Hospital Hradec Králové. All strains were stored at −70 °C in the Cryobank according to the manufacturer’s instructions. Subsequently, when needed, each bacterial strain was inoculated and cultivated on Mueller–Hinton agar (HiMedia, Cadersky-Envitek, Prague, Czech Republic).
(§2) The antibacterial susceptibility was determined by a microdilution broth method according to standard M07-A10,[55] and the optimized protocol has been published previously.[56],[57] Briefly, Mueller–Hinton broth (MHB) adjusted to pH 7.4 (±0.2) was used as the test medium. […] The wells of the microdilution tray contained 200 μL of the MHB with 2-fold serial dilutions of the compounds and were inoculated with 10 μL of the bacterial suspension. The bacterial suspensions were controlled densitometrically to reach 1.5 × 10^8 viable CFU per 1 mL. The minimum inhibitory concentration (MIC) values, defined as 95% inhibition of bacterial growth, were determined after 24 h of incubation at 35 °C ± 1 °C.

E. coli K12, CCM 7929 = assay: Microdilution broth MIC; assay type: cell-based; details: Escherichia coli
Method: as §1, §2

[1] = tested on: S. epidermidis—clinical isolate C1936; assay: Microdilution broth MIC; assay type: cell-based; details: Staphylococcus epidermidis, 24 h
Method: as §1, §2

[2] = tested on: E. coli—clinical isolate A1235; assay: Microdilution broth MIC; assay type: cell-based; details: Escherichia coli, 24 h
Method: as §1, §2

[3] = tested on: E. faecium VRE—clinical isolate S2484; assay: Microdilution broth MIC; assay type: cell-based; details: Enterococcus faecium, 24 h
Method: as §1, §2

[4] = tested on: K. pneumoniae ESBL+—clinical isolate C1914; assay: Microdilution broth MIC; assay type: cell-based; details: Klebsiella pneumoniae, 24 h
Method: as §1, §2

[5] = tested on: P. aeruginosa MR—clinical isolate A1245; assay: Microdilution broth MIC; assay type: cell-based; details: Pseudomonas aeruginosa, 24 h
Method: as §1, §2

[6] = tested on: anti-miR-21 oligo(2′-O-methylribonucleotide); assay: DLS of dendriplexes with anti-miR-21 oligonucleotide; assay type: physicochemical; details: for mean diameter of dendriplex: 0.9% NaCl
Method: Dendriplexes were characterized by DLS using Zetasizer Nano-S (Malvern Panalytical, UK) equipped with a 632.8 nm laser, applying detection angle 173°. Mean diameters from the intensity-weighted size distribution are given. Average results from three consecutive sets of measurements generated by Malvern Zetasizer Software version 7.13 are presented.
Amphiphilic dendrons (1.5–73 μM) were mixed with the anti-miR-21:5′-m([…]) (500 nM) in 0.9% NaCl solution in milli-Q water. The dendrons’ concentrations were chosen to attain the charge ratio (CR, the ratio of cations over anions in the sample) of 1.2, 2.5, 5, 10, or 20. The samples were incubated for 15 min at rt prior to measurements.

[7] = tested on: S. aureus MRSA—clinical isolate C1926; assay: Microdilution broth MIC; assay type: cell-based; details: Staphylococcus aureus, 24 h
[8] = Dynamic light scattering (DLS/MADLS) of micelles in physiological solution; assay type: physicochemical
Method: The size of micelles and micellar aggregates was estimated by the dynamic light scattering (DLS) method using NanoBrook OMNI ZetaPALS (Brookhaven Instruments, USA) with a detection angle 90° and 640 nm laser. The presented diameters are mean values from the intensity-weighted size distribution. The composition of the samples was as follows: dendron (1.0 mM) and NaCl (0.9%) in deionized water. The solutions were sonicated for 30 min, filtered through 0.45 μm Nylon syringe filters (Avantor, USA), placed in standard polystyrene cuvettes (BI-SCP, Brookhaven Instruments), and stored at 4 °C. All measurements were conducted at 25 °C. Measurement time was set to 5 min, and each measurement was repeated 5 times. The analysis of data was performed using Brookhaven Instruments software Particle Solutions v3.6.07136.
MADLS and size dependence on concentration and pH were measured on Zetasizer Ultra Red (Malvern Panalytical, UK) equipped with a 632.8 nm laser, applying detection angles 12.78°, 90°, and 174.7° in the case of MADLS measurements and 12.78° for size dependence measurements. MADLS and concentration dependence were measured in DTS0012 polystyrene cuvettes (Malvern Panalytical, UK); pH dependence was studied by acidobasic titration in DTS1070 folded capillary Zeta cell, using MPT-3 Multipurpose Titrator and DEG0003 Auto Degasser (all Malvern Panalytical, UK). The concentration dependence measurement started at 1.0 mM and the samples were diluted 2-fold until the minimum concentration 0.06 mM. For each concentration, the measurement was repeated 3 times giving 15 measurements in total. The pH dependence measurement started at pH 12; the titration was performed with a step of 2 and at each step, the measurement was repeated 3 times, giving 18 measurements in total. Malvern Panalytical software ZS Xplorer version 3.3.1.5 was used for the analysis of data.

[9] = set-up: method as in doi:10.1016/j.colsurfa.2004.10.066; details: standard cationic surfactant; cited from earlier work
[10] = 95% inhibition of growth, read-out: MIC

## CCCCCCCCCCCCNC(=O)c1cc(OCCC[Si](CCCSCC(=O)NCCC[P+](c2ccccc2)(c2ccccc2)c2ccccc2)(CCCSCC(=O)NCCC[P+](c2ccccc2)(c2ccccc2)c2ccccc2)CCCSCC(=O)NCCC[P+](c2ccccc2)(c2ccccc2)c2ccccc2)cc(C(=O)NCCCCCCCCCCCC)c1 [DnP3-2C12]
S. aureus CCM 4516; CCM4516, 24 h
  MIC: > 12.5 µM
E. coli K12, CCM 7929; CCM7929, 24 h
  MIC: > 12.5 µM
[1]
  MIC: > 12.5 µM
[2]
  MIC: > 12.5 µM
[3]
  MIC: > 12.5 µM
[4]
  MIC: > 12.5 µM
[5]
  MIC: > 12.5 µM
[6]; CR 1.2
  PI of dendriplex: 0.11
[6]; CR 1.2, anti-miR-21 500 nM
  mean diameter of dendriplex: 0.13 μm
[6]; CR 2.5
  PI of dendriplex: 0.2
[6]; CR 2.5, anti-miR-21 500 nM
  mean diameter of dendriplex: 0.8 μm
[6]; CR 5
  PI of dendriplex: 0.3
[6]; CR 5, anti-miR-21 500 nM
  mean diameter of dendriplex: 1.0 μm
[6]; CR 10
  PI of dendriplex: 0.14
[6]; CR 10, anti-miR-21 500 nM
  mean diameter of dendriplex: 0.18 μm
[6]; CR 20
  PI of dendriplex: 0.17
[6]; CR 20, anti-miR-21 500 nM
  mean diameter of dendriplex: 0.14 μm
[7]
  MIC: > 12.5 µM
[8]; 1.0 mM dendron, 0.9% NaCl
  PDI: ≈ 0.2
[8]; 1.0 mM dendron, 0.9% NaCl, 25 °C, start of testing period
  mean size (DLS, intensity-weighted): 21 nm
[8]; 1.0 mM dendron, 0.9% NaCl, after 75 day testing period, stored at 4 °C
  mean size (DLS, intensity-weighted): 25 nm
[8]; aggregates
  mean size of the second population (MADLS): 37 nm
[8]; isolated micelles
  mean diameter of the smaller particles (MADLS): 10.0 nm

## CCCCCCCCCCCCNC(=O)c1cc(OCCC[Si](CCCSCC(=O)NCCC[P+](c2ccccc2)(c2ccccc2)c2ccccc2)(CCCSCC(=O)NCCC[P+](c2ccccc2)(c2ccccc2)c2ccccc2)CCCSCC(=O)NCCC[P+](c2ccccc2)(c2ccccc2)c2ccccc2)cc(OCCC[Si](CCCSCC(=O)NCCC[P+](c2ccccc2)(c2ccccc2)c2ccccc2)(CCCSCC(=O)NCCC[P+](c2ccccc2)(c2ccccc2)c2ccccc2)CCCSCC(=O)NCCC[P+](c2ccccc2)(c2ccccc2)c2ccccc2)c1 [DnP6-1C12]
S. aureus CCM 4516; CCM4516, 24 h
  MIC: 6.25 µM
E. coli K12, CCM 7929; CCM7929, 24 h
  MIC: 6.25 µM
[1]
  MIC: 1.56 µM
[2]
  MIC: 6.25 µM
[3]
  MIC: 3.13 µM
[4]
  MIC: 12.5 µM
[5]
  MIC: ≥ 12.5 µM
[6]; CR 1.2
  PI of dendriplex: 0.08
[6]; CR 1.2, anti-miR-21 500 nM
  mean diameter of dendriplex: 0.22 μm
[6]; CR 2.5
  PI of dendriplex: 0.2
[6]; CR 2.5, anti-miR-21 500 nM
  mean diameter of dendriplex: 0.8 μm
[6]; CR 5
  PI of dendriplex: 0.10
[6]; CR 5, anti-miR-21 500 nM
  mean diameter of dendriplex: 0.8 μm
[6]; CR 10
  PI of dendriplex: 0.05
[6]; CR 10, anti-miR-21 500 nM
  mean diameter of dendriplex: 0.8 μm
[7]
  MIC: 6.25 µM

## CCCCCCCCCCCCCCCC[N+](C)(C)C [cetyltrimethylammonium bromide]
[9]
  CMC: around 1 mM

## CCCCCCCCCCCCNC(=O)c1ccc(OCCC[Si](CCCSCC(=O)NCCC[P+](c2ccccc2)(c2ccccc2)c2ccccc2)(CCCSCC(=O)NCCC[P+](c2ccccc2)(c2ccccc2)c2ccccc2)CCCSCC(=O)NCCC[P+](c2ccccc2)(c2ccccc2)c2ccccc2)cc1 [DnP3-1C12]
S. aureus CCM 4516; CCM4516, 24 h, 95% inhibition of growth, read-out: MIC
  MIC: 3.13 µM
E. coli K12, CCM 7929; CCM7929, 24 h, 95% inhibition of growth, read-out: MIC
  MIC: 6.25 µM
[1]; [10]
  MIC: 1.56 µM
[2]; [10]
  MIC: 12.5 µM
[3]
  MIC: 1.15 µM
[4]
  MIC: > 12.5 µM
[5]
  MIC: > 12.5 µM
[6]; CR 1.2
  PI of dendriplex: 0.07
[6]; CR 1.2, anti-miR-21 500 nM
  mean diameter of dendriplex: 0.14 μm
[6]; CR 2.5
  PI of dendriplex: 0.2
[6]; CR 2.5, anti-miR-21 500 nM
  mean diameter of dendriplex: 0.9 μm
[6]; CR 5
  PI of dendriplex: 0.3
[6]; CR 5, anti-miR-21 500 nM
  mean diameter of dendriplex: > 1 μm
[6]; CR 10
  PI of dendriplex: 0.1
[6]; CR 10, anti-miR-21 500 nM
  mean diameter of dendriplex: > 1 μm
[7]
  MIC: 3.13 µM
